Laboratory results as given in patent US10596160B2, “Compositions, methods and uses for the treatment of diabetes and related conditions by controlling blood glucose level” (PHARNEXT, priority 2012, dated 2020).
“Also recorded” adds a separate entry of the source.

How the values were obtained:
[1] = tested on: beta pancreatic INS-1 cells; experiment: Prevention of beta cells apoptosis (ssDNA apoptosis detection kit); format: cell-based; parameters: concentration or dose not given beside the values; conditions: 1 h pre-incubation then 24 h in apoptotic conditions, drugs tested alone
Procedure: The beta pancreatic INS-1 cells have been selected for this study. The cells are cultured in complete medium, RPMI 1640 10 mM glucose supplemented with 1 mM sodium pyruvate, 50 μM 2-mercaptoethanol, 2 mM glutamine, 10 mM HEPES, 100 IU/mL penicillin, 100 μg/mL streptomycin and 10% heat-inactivated fetal calf serum (FCS), as described by Asfari et al. (23). INS-1 cells are plated (4.5×10^4 cells/well) in 96-well poly-ornithine coated plates and cultured at 37° C. in a humidified atmosphere of 95% air/5% CO2. The day after, cells are pre-incubated with the tested molecules for 1 h. Then, after a medium change, cells are cultured for 24 h in a medium containing the tested molecules and 30 mM glucose, 0.05 mM myristic acid, 25 ng/mL INF, 25 ng/mL TNF and 5 ng/mL IL.
The efficacy of compounds to prevent apoptosis is then evaluated by the highly specific apoptosis detection kit from Chemicon (Ref. APT225). This procedure is based on the detection of single-stranded DNA (ssDNA) which is a specific marker of apoptotic cells (24).
Results are expressed in optical density (OD) arbitrary unit and % of reduction of the apoptosis induced by apoptotic condition. Following a Dunnett t-test, all compounds showing a significant decrease in % of apoptotic cells compared to apoptotic control conditions are considered active.

hepatocytes = experiment: Glucose production by hepatic cells; format: cell-based, rat; conditions: 10 μM
Procedure: Hepatocytes are isolated from 24 h-fasted male Wistar rats (200-250 g body weight) by ex situ liver perfusion in the presence of collagenase. Cell viability is validated by a trypan blue exclusion test. […] After plating, the medium is removed and cells are cultured for 16 h in RPMI medium without glucose (supplemented with the tested drugs for long-term evaluation). The following day, hepatic glucose production is assessed in Krebs-Ringer Bicarbonate HEPES buffer (KRBH; pH 7.4) in the presence of the neoglucogenic substrates (lactate 10 mM and pyruvate 1 mM) and the tested molecules for 4 h (short-term).
Supernatants are collected and glucose concentrations are determined using a glucose oxidase kit (Instrumentation Laboratory 0018250840). In parallel, protein quantification is performed using the colorimetric Lowry method.
Results are expressed in nmol glucose/mg protein and % of control condition (KLP: KRBH containing lactate and pyruvate).

[2] = tested on: H-2 Kb mouse muscle cells; experiment: Glucose uptake in mouse muscle cells; format: cell-based; conditions: H-2 Kb cells, vs non-treated cells
Procedure: For differentiation in […], cells are switched to non-permissive culture conditions (37° C. in a humidified atmosphere of 95% air/5% CO2; DMEM 5.5 mM D-glucose supplemented with 2% FCS, 10% horse serum, 2% glutamine, 1% chicken embryo, 100 U/mL penicillin, and 100 μg/mL streptomycin).
For long-term effect evaluation, the day before glucose uptake assay, cells are incubated in DMEM 5.5 mM D-glucose supplemented with 10% horse serum, 2% SVF, 1% chicken embryo, and 2% glutamine in the presence of the tested molecules for 16 h. […]
For short-term effect evaluation, 4 hours prior to the glucose test, cells are washed and incubated in a serum-free medium (DMEM) containing 5.5 mM D-glucose and the tested molecules. Then glucose uptake is measured by incubation of the cells for 5-10 min with radiolabeled 2-deoxy-D-[1,2^3H] glucose in Krebs-Ringer HEPES buffer (KRBH; pH 7.4), 0.1% Bovine Serum Albumin (BSA), and fraction V (Sigma, A-4503). […] Cell-associated radioactivity is then counted and protein quantification is determined using the colorimetric Lowry method. Glucose uptake is estimated by measuring the radioactivity incorporated to the cells by a MicroBeta counter after adding 600 μL per well of scintillant (Optiphase SuperMix3).
Protein quantification is performed by a colorimetric assay derived from the Lowry method. […]

[3] = tested on: differentiated 3T3-L1 adipocyte cells; experiment: Glucose uptake in 3T3-L1 adipocyte cells; format: cell-based; conditions: 3T3-L1 cells
Procedure: 3T3-L1 preadipocyte cells were cultured in DMEM containing 1% penicillin-streptomycin (PS) and 10% bovine calf serum at 37° C. in a 5% CO2 atmosphere. […] Differentiation, as measured by the expression of adipogenic markers and the appearance of lipid droplets, usually reaches completion between days 4 and 8. Glucose uptake activity was analyzed by measuring the uptake of radiolabeled glucose. Differentiated 3T3-L1 adipocytes grown in 12-well plates were washed twice with serum-free DMEM and incubated for 2 h at 37° C. with 1 mL DMEM containing 0.1% BSA. […] Next, cells were incubated with or without drugs for different durations in order to evaluate their short-term and long-term effects. To evaluate their short-term effect, cells were incubated with drugs of the invention for 4 hours at 37° C. To evaluate the long-term effect of drugs of the invention, the day prior to the test, cells were pre-incubated with or without drugs for 16 h. The day after, prior to the test, cells were washed and incubated in the presence of the tested molecules for 4 h more. […] After 20 min, glucose uptake was terminated by washing the cells three times with cold PBS. The cells were lysed through incubation for 20 min at 37° C. with 0.7 mL of Triton X-100. Level of radioactivity in the cell lysates was determined using a scintillation counter. Protein quantification was performed by a colorimetric assay derived from the Lowry method.

[4] = tested on: beta pancreatic INS-1 cells; experiment: Insulin secretion in response to glucose stimulation; format: cell-based, rat
Procedure: The cells are cultured in complete medium, RPMI 1640 10 mM glucose supplemented with 1 mM sodium pyruvate, 50 μM 2-mercaptoethanol, 2 mM glutamine, 10 mM HEPES, 100 IU/mL penicillin, 100 μg/mL streptomycin and 10% heat-inactivated fetal calf serum (FCS), as described by Asfari et al. (23). […] After 3 days of culture at 37° C. in a humidified atmosphere of 95% air/5% CO2, the medium is removed and cells are cultured for 16 h in a medium containing 5 mM glucose, 1% FCS (and the tested drugs for long-term evaluation).
The cells are washed again with KRBH and incubated for 1 h in KRBH 0.1% BSA containing 3.5 mM glucose and the tested molecules.
Standards, samples and controls are added to the appropriate wells with a horseradish peroxidase enzyme-labeled monoclonal antibody (conjugate). After incubation, the microplates are washed to remove unbound conjugate and a TMB substrate solution is added to react with the bound conjugate. Finally, after addition of a stop solution, the optical density is measured at 450 nm using a reference wavelength of 620 nm. The intensity of the yellow color is directly proportional to the amount of insulin within the samples.

[5] = tested on: TNFα-induced insulin resistant 3T3-L1 differentiated adipocytes; experiment: Glucose uptake in TNFα-induced insulin resistant 3T3-L1 differentiated adipocytes; format: cell-based; conditions: for enhancement of glucose uptake: drug alone, vs non-treated insulin-resistant cells (TNFα); for enhancement of glucose uptake, combination experiment / enhancement of glucose uptake, combination with metformin: vs TNFα cells; for enhancement of glucose uptake, combination experiment: Dunnett's test; for enhancement of glucose uptake, combination with metformin: combined or alone at the same concentrations
Procedure: 3T3L1 fibroblasts were maintained in DMEM 4.5 g/L glucose supplemented with 5% calf serum donor, 5% newborn calf serum, 100 U/mL penicillin, and 100 μg/mL streptomycin at 37° C. under a 10% CO2 atmosphere. Cells were grown on 24-well plates at a density of 2560 cells/well in 0.5 mL of growth medium (DMEM 4.5 g/L glucose supplemented with 10% FCS, 100 U/mL penicillin, and 100 μg/mL streptomycin). […] Fresh media were replaced after two days.
Glucose uptake was measured by quantification of incorporated radiolabeled glucose, after an incubation step with 2-deoxy-D[1,2^3H] glucose for 5 min. Glucose uptake was arrested by two washing steps in ice-cold PBS 1×, then were solubilized in 0.1N NaOH for 30 min. Cell-associated radioactivity was then counted using a MicroBeta counter after adding 600 μL per well of scintillant (Optiphase SuperMix3).
In parallel, protein quantification was determined by a colorimetric assay derived from the Lowry method. Results are expressed in nmol of glucose incorporated/5 mn/mg of protein and in % of control or basal condition (100%).

[6] = drugs combined at a dose as low as 3.3 nM, or used individually
[7] = drugs combined at a dose as low as 10 nM, or used individually
[8] = fenspiride 3.3 nM and metformin 100 μM

SMILES: NCC(CC(=O)O)c1ccc(Cl)cc1 (racemic) [baclofen]
- Percentage of apoptosis reduction [1]: 84%

SMILES: O=C[C@@H](O)[C@@H](O)[C@H](O)[C@H](O)CO [D-mannose]
- Percentage of apoptosis reduction [1]: 129%
- reduction of glucose production (hepatocytes; short-term): −22%

SMILES: C=CCNc1nc(NCC=C)nc(N2CCN(C(c3ccc(F)cc3)c3ccc(F)cc3)CC2)n1 [almitrine]
- Percentage of apoptosis reduction [1]: 103%
- enhancement of glucose uptake ([2]; short-term, 1 μM): +80%
- enhancement of glucose uptake ([3]; long-term, 1 μM): +69%

SMILES: CN1CCCC(n2nc(Cc3ccc(Cl)cc3)c3ccccc3c2=O)CC1 (stereo not shown) [azelastine]
- Percentage of apoptosis reduction [1]: 81%
- reduction of glucose production (hepatocytes; long-term): −36%

SMILES: CCN(CC)CCOCCOC(=O)C1(c2ccccc2)CCCC1 [carbetapentane]
- Percentage of apoptosis reduction [1]: 103%
- enhancement of glucose uptake ([3]; short-term, 0.1 μM (100 nM)): +58%

SMILES: C[C@@H](NCCCc1cccc(C(F)(F)F)c1)c1cccc2ccccc12 [cinacalcet]
- Percentage of apoptosis reduction [1]: 167%
- enhancement of insulin secretion ([4]; long-term pre-treatment, 1 μM): +55%

SMILES: CN(C)CC[C@@H](c1ccc(Br)cc1)c1ccccn1 [dexbrompheniramine]
- Percentage of apoptosis reduction [1]: 76%

SMILES: CCN(CC)C(=O)N1CCN(C)CC1 [diethylcarbamazine]
- Percentage of apoptosis reduction [1]: 44%

SMILES: O=C1NCC2(CCN(CCc3ccccc3)CC2)O1 [fenspiride]
- enhancement of glucose uptake ([5]; 0.37 nM): improvement
- enhancement of glucose uptake ([5]; 1 nM): +130%
- enhancement of glucose uptake ([5]; 3.3 nM): improvement
- enhancement of glucose uptake, combination experiment [5, 6]: No significant effect
- enhancement of glucose uptake, combination experiment [5, 7]: No significant effect
- enhancement of glucose uptake, combination with metformin [5, 8]: does not lead to any significant improvement; also recorded: No significant effect

SMILES: C[C@@H]1CC(=O)NN=C1c1ccc(NN=C(C#N)C#N)cc1 [levosimendan]
- Percentage of apoptosis reduction [1]: 118%

SMILES: CN(C)C(=N)N=C(N)N [metformin]
- enhancement of glucose uptake, combination with metformin [5, 8]: does not lead to any significant improvement; also recorded: No significant effect
- enhancement of glucose uptake, combination with metformin ([5]; ifenprodil 3.3 nM and metformin 100 μM): does not lead to any significant improvement; also recorded: No significant effect

SMILES: Cc1cccc(C)c1OCC(C)N (stereo not shown) [mexiletine]
- Percentage of apoptosis reduction [1]: 74%

SMILES: CO[C@]12C[C@@H](COC(=O)c3cncc(Br)c3)CN(C)[C@@H]1Cc1cn(C)c3cccc2c13 [nicergoline]
- Percentage of apoptosis reduction [1]: 112%
- enhancement of glucose uptake ([2]; long-term, 10 μM): +28%

SMILES: c1cnc(N2CCN(Cc3ccc4c(c3)OCO4)CC2)nc1 [piribedil]
- enhancement of glucose uptake ([3]; short-term, 10 nM): +68%

SMILES: Cc1c(Cl)cccc1Nc1ccccc1C(=O)O [tolfenamic acid]
- enhancement of glucose uptake ([5]; 10 nM): +127%
- enhancement of glucose uptake ([5]; 100 nM): improvement
- enhancement of glucose uptake ([5]; 1 μM): improvement
- enhancement of glucose uptake, combination experiment [5, 6]: No significant effect
- enhancement of glucose uptake, combination experiment [5, 7]: No significant effect

SMILES: Cc1ccc(C(=O)C(C)CN2CCCCC2)cc1 (stereo not shown) [tolperisone]
- Percentage of apoptosis reduction [1]: 78%

SMILES: Cc1cccc(Nc2ccncc2S(=O)(=O)NC(=O)NC(C)C)c1 [torasemide]
- Percentage of apoptosis reduction [1]: 67%
- enhancement of glucose uptake ([5]; 0.37 nM): +121%
- enhancement of glucose uptake ([5]; 1 nM): +123%
- enhancement of glucose uptake ([5]; 3.3 nM): +129%

SMILES: Nc1nc(N)c2nc(-c3ccccc3)c(N)nc2n1 [triamterene]
- Percentage of apoptosis reduction [1]: 64%
- enhancement of insulin secretion ([4]; short-term pre-treatment, 10 μM): +37%
- enhancement of glucose uptake, combination experiment [5, 7]: No significant effect
